The compounds below were run on caterpillars of the army worm (Spodoptera frugiperda) (assay: Spodoptera frugiperda test (SPODFR spray treatment)). Details: Example I; 4 ppm active compound; sprayed maize leaf discs.
Type: in vivo
Procedure: Spodoptera frugiperda Test (SPODFR Spray Treatment)
• Solvents: 78.0 parts by weight of acetone • 1.5 parts by weight of dimethylformamide • Emulsifier: 0.5 part by weight of alkylaryl polyglyycol ether
After the desired period of time, the effect in % is determined. 100% means that all caterpillars have been killed; 0% means that none of the caterpillars have been killed.

Compound	Kill rate in % after 5 days
CC[C@H](C)[C@H]1OC2(C=C[C@@H]1C)C[C@@H]1C[C@@H](C/C=C(\C)[C@@H](OC3CC(OC)C(OC(=O)CCn4ccnc4)C(C)O3)[C@@H](C)/C=C/C=C3\CO[C@@H]4[C@H](O)C(C)=CC(C(=O)O1)[C@]34O)O2 (stereo partly drawn) [Example 86]	100%
CC[C@H](C)[C@H]1OC2(C=C[C@@H]1C)C[C@@H]1C[C@@H](C/C=C(\C)[C@@H](OC3CC(OC)C(OC(=O)COc4ccc(Cl)cc4)C(C)O3)[C@@H](C)/C=C/C=C3\CO[C@@H]4[C@H](O)C(C)=CC(C(=O)O1)[C@]34O)O2 (stereo partly drawn) [Example 39]	100%
CC[C@H](C)[C@H]1OC2(C=C[C@@H]1C)C[C@@H]1C[C@@H](C/C=C(\C)[C@@H](OC3CC(OC)C(OC(=O)Cc4nc(C)sc4C)C(C)O3)[C@@H](C)/C=C/C=C3\CO[C@@H]4[C@H](O)C(C)=CC(C(=O)O1)[C@]34O)O2 (stereo partly drawn) [Example 47]	100%
CC[C@H](C)[C@H]1OC2(C=C[C@@H]1C)C[C@@H]1C[C@@H](C/C=C(\C)[C@@H](OC3CC(OC)C(OC(=O)c4ccc(F)cc4)C(C)O3)[C@@H](C)/C=C/C=C3\CO[C@@H]4[C@H](O)C(C)=CC(C(=O)O1)[C@]34O)O2 (stereo partly drawn) [Example 99]	100%
CC[C@H](C)[C@H]1OC2(C=C[C@@H]1C)C[C@@H]1C[C@@H](C/C=C(\C)[C@@H](OC3CC(OC)C(OC(=O)COC)C(C)O3)[C@@H](C)/C=C/C=C3\CO[C@@H]4[C@H](O)C(C)=CC(C(=O)O1)[C@]34O)O2 (stereo partly drawn) [Example 30]	100%
CC[C@H](C)[C@H]1OC2(C=C[C@@H]1C)C[C@@H]1C[C@@H](C/C=C(\C)[C@@H](OC3CC(OC)C(OC(=O)C4CCC(=O)N4)C(C)O3)[C@@H](C)/C=C/C=C3\CO[C@@H]4[C@H](O)C(C)=CC(C(=O)O1)[C@]34O)O2 (stereo partly drawn) [Example 38]	100%
CC[C@H](C)[C@H]1OC2(C=C[C@@H]1C)C[C@@H]1C[C@@H](C/C=C(\C)[C@@H](OC3CC(OC)C(OC(=O)Cn4ccnc4)C(C)O3)[C@@H](C)/C=C/C=C3\CO[C@@H]4[C@H](O)C(C)=CC(C(=O)O1)[C@]34O)O2 (stereo partly drawn) [Example 49]	100%
CC[C@H](C)[C@H]1OC2(C=C[C@@H]1C)C[C@@H]1C[C@@H](C/C=C(\C)[C@@H](OC3CC(OC)C(OC(=O)Cc4csc(-c5ccncc5)n4)C(C)O3)[C@@H](C)/C=C/C=C3\CO[C@@H]4[C@H](O)C(C)=CC(C(=O)O1)[C@]34O)O2 (stereo partly drawn) [Example 46]	100%
CC[C@H](C)[C@H]1OC2(C=C[C@@H]1C)C[C@@H]1C[C@@H](C/C=C(\C)[C@@H](OC3CC(OC)C(OC(=O)c4ccc(OC(F)(F)F)cc4)C(C)O3)[C@@H](C)/C=C/C=C3\CO[C@@H]4[C@H](O)C(C)=CC(C(=O)O1)[C@]34O)O2 (stereo partly drawn) [Example 97]	33%
CC[C@H](C)[C@H]1O[C@]2(C=C[C@@H]1C)C[C@@H]1C[C@@H](C/C=C(\C)[C@@H](O[C@H]3C[C@H](OC)[C@@H](OC(=O)c4ccc(Cl)cc4)[C@H](C)O3)[C@@H](C)/C=C/C=C3\CO[C@@H]4[C@H](O)C(C)=C[C@@H](C(=O)O1)[C@]34O)O2 [4′-O-(4-chlorobenzoyl)-4′-O-de(2,6-dideoxy-3-O-methyl-α-L-arabino-hexopyranosyl)-5-O-demethyl-avermectin A1a, reference compound]	0%

Each compound was assayed on larvae of the mustard beetle (Phaedon cochleariae) (assay: Phaedon test (PHAECO spray treatment)). Details: Example D; 4 ppm active compound; sprayed Chinese cabbage discs.
Type: in vivo
Procedure: Phaedon Test (PHAECO Spray Treatment)
• Solvents: 78 parts by weight of acetone • 1.5 parts by weight of dimethylformamide • Emulsifier: 0.5 part by weight of alkylaryl polyglyycol ether
After the desired period of time, the effect in % is determined. 100% means that all beetle larvae have been killed; 0% means that none of the beetle larvae have been killed.

Compound	Kill rate in % after 7 days
CC[C@H](C)[C@H]1OC2(C=C[C@@H]1C)C[C@@H]1C[C@@H](C/C=C(\C)[C@@H](OC3CC(OC)C(OC(=O)Cn4ccnn4)C(C)O3)[C@@H](C)/C=C/C=C3\CO[C@@H]4[C@H](O)C(C)=CC(C(=O)O1)[C@]34O)O2 (stereo partly drawn) [Example 3]	80%

Same assay, conditions: Example G; 4 ppm active compound; sprayed Chinese cabbage discs

Compound	Kill rate in % after 7 days
CC[C@H](C)[C@H]1OC2(C=C[C@@H]1C)C[C@@H]1C[C@@H](C/C=C(\C)[C@@H](OC3CC(OC)C(OC(=O)CC4CCCO4)C(C)O3)[C@@H](C)/C=C/C=C3\CO[C@@H]4[C@H](O)C(C)=CC(C(=O)O1)[C@]34O)O2 (stereo partly drawn) [Example 31]	100%
CC[C@H](C)[C@H]1OC2(C=C[C@@H]1C)C[C@@H]1C[C@@H](C/C=C(\C)[C@@H](OC3CC(OC)C(OC(=O)Cn4c(C)ccc4C)C(C)O3)[C@@H](C)/C=C/C=C3\CO[C@@H]4[C@H](O)C(C)=CC(C(=O)O1)[C@]34O)O2 (stereo partly drawn) [Example 44]	100%
CCC(C)C1OC2(C=CC1C)CC1CC(CC=C(C)C(OC3CC(OC)C(OC(=O)C(C)N4CCN(C(=O)OC(C)(C)C)CC4)C(C)O3)C(C)C=CC=C3COC4C(O)C(C)=CC(C(=O)O1)C34O)O2 (mixture of isomers) [Example 77]	100%
CC[C@H](C)[C@H]1OC2(C=C[C@@H]1C)C[C@@H]1C[C@@H](C/C=C(\C)[C@@H](OC3CC(OC)C(OC(=O)CN4CCOCC4)C(C)O3)[C@@H](C)/C=C/C=C3\CO[C@@H]4[C@H](O)C(C)=CC(C(=O)O1)[C@]34O)O2 (stereo partly drawn) [Example 79]	100%
CC[C@H](C)[C@H]1OC2(CC[C@@H]1C)C[C@@H]1C[C@@H](C/C=C(\C)[C@@H](OC3CC(OC)C(OC(=O)Cn4cccn4)C(C)O3)[C@@H](C)/C=C/C=C3\CO[C@@H]4[C@H](O)C(C)=CC(C(=O)O1)[C@]34O)O2 (stereo partly drawn) [Example 22]	100%
CC[C@H](C)[C@H]1OC2(C=C[C@@H]1C)C[C@@H]1C[C@@H](C/C=C(\C)[C@@H](OC3CC(OC)C(OC(=O)C(C)n4cccn4)C(C)O3)[C@@H](C)/C=C/C=C3\CO[C@@H]4[C@H](O)C(C)=CC(C(=O)O1)[C@]34O)O2 (stereo partly drawn) [Example 62]	100%
CC[C@H](C)[C@H]1OC2(C=C[C@@H]1C)C[C@@H]1C[C@@H](C/C=C(\C)[C@@H](OC3CC(OC)C(OC(=O)C(C)n4ccnn4)C(C)O3)[C@@H](C)/C=C/C=C3\CO[C@@H]4[C@H](O)C(C)=CC(C(=O)O1)[C@]34O)O2 (stereo partly drawn) [Example 61]	100%
CC[C@H](C)[C@H]1OC2(C=C[C@@H]1C)C[C@@H]1C[C@@H](C/C=C(\C)[C@@H](OC3CC(OC)C(OC(=O)Cc4c(C)noc4C)C(C)O3)[C@@H](C)/C=C/C=C3\CO[C@@H]4[C@H](O)C(C)=CC(C(=O)O1)[C@]34O)O2 (stereo partly drawn) [Example 43]	100%
CC[C@H](C)[C@H]1OC2(C=C[C@@H]1C)C[C@@H]1C[C@@H](C/C=C(\C)[C@@H](OC3CC(OC)C(OC(=O)C(C)n4ccnn4)C(C)O3)[C@@H](C)/C=C/C=C3\CO[C@@H]4[C@H](O)C(C)=CC(C(=O)O1)[C@]34O)O2 (stereo partly drawn) [Example 56]	100%
CC[C@H](C)[C@H]1OC2(C=C[C@@H]1C)C[C@@H]1C[C@@H](C/C=C(\C)[C@@H](OC3CC(OC)C(OC(=O)CNC)C(C)O3)[C@@H](C)/C=C/C=C3\CO[C@@H]4[C@H](O)C(C)=CC(C(=O)O1)[C@]34O)O2 (stereo partly drawn) [Example 104]	100%
CC[C@H](C)[C@H]1OC2(C=C[C@@H]1C)C[C@@H]1C[C@@H](C/C=C(\C)[C@@H](OC3CC(OC)C(OC(=O)Cc4ccccn4)C(C)O3)[C@@H](C)/C=C/C=C3\CO[C@@H]4[C@H](O)C(C)=CC(C(=O)O1)[C@]34O)O2 (stereo partly drawn) [Example 65]	100%
CC[C@H](C)[C@H]1OC2(C=C[C@@H]1C)C[C@@H]1C[C@@H](C/C=C(\C)[C@@H](OC3CC(OC)C(OC(=O)CN4CCC(NC(=O)OC(C)(C)C)CC4)C(C)O3)[C@@H](C)/C=C/C=C3\CO[C@@H]4[C@H](O)C(C)=CC(C(=O)O1)[C@]34O)O2 (stereo partly drawn) [Example 51]	100%
CC[C@H](C)[C@H]1OC2(C=C[C@@H]1C)C[C@@H]1C[C@@H](C/C=C(\C)[C@@H](OC3CC(OC)C(OC(=O)Cn4nc(OC)n(C)c4=O)C(C)O3)[C@@H](C)/C=C/C=C3\CO[C@@H]4[C@H](O)C(C)=CC(C(=O)O1)[C@]34O)O2 (stereo partly drawn) [Example 64]	100%
CC[C@H](C)[C@H]1OC2(C=C[C@@H]1C)C[C@@H]1C[C@@H](C/C=C(\C)[C@@H](OC3CC(OC)C(OC(=O)CN4CCNCC4)C(C)O3)[C@@H](C)/C=C/C=C3\CO[C@@H]4[C@H](O)C(C)=CC(C(=O)O1)[C@]34O)O2 (stereo partly drawn) [Example 101, 4′-O-(piperazin-1-ylacetyl)-avermectin B1 monosaccharide]	100%
CC[C@H](C)[C@H]1OC2(C=C[C@@H]1C)C[C@@H]1C[C@@H](C/C=C(\C)[C@@H](OC3CC(OC)C(OC(=O)C(C)n4ccnc4)C(C)O3)[C@@H](C)/C=C/C=C3\CO[C@@H]4[C@H](O)C(C)=CC(C(=O)O1)[C@]34O)O2 (stereo partly drawn) [Example 58]	100%
CC[C@H](C)[C@H]1OC2(C=C[C@@H]1C)C[C@@H]1C[C@@H](C/C=C(\C)[C@@H](OC3CC(OC)C(OC(=O)Cn4nc(C)n(C)c4=O)C(C)O3)[C@@H](C)/C=C/C=C3\CO[C@@H]4[C@H](O)C(C)=CC(C(=O)O1)[C@]34O)O2 (stereo partly drawn) [Example 63]	100%
CC[C@H](C)[C@H]1OC2(C=C[C@@H]1C)C[C@@H]1C[C@@H](C/C=C(\C)[C@@H](OC3CC(OC)C(OC(=O)C4CC4(Cl)Cl)C(C)O3)[C@@H](C)/C=C/C=C3\CO[C@@H]4[C@H](O)C(C)=CC(C(=O)O1)[C@]34O)O2 (stereo partly drawn) [Example 37]	100%
CC[C@H](C)[C@H]1OC2(C=C[C@@H]1C)C[C@@H]1C[C@@H](C/C=C(\C)[C@@H](OC3CC(OC)C(OC(=O)CN4CCN(C(=O)OC(C)(C)C)CC4)C(C)O3)[C@@H](C)/C=C/C=C3\CO[C@@H]4[C@H](O)C(C)=CC(C(=O)O1)[C@]34O)O2 (stereo partly drawn) [Example 53, 4′-O-{[4-(tert-Butoxycarbonyl)piperazin-1-yl]acetyl}-avermectin B1 monosaccharide]	100%
CC[C@H](C)[C@H]1OC2(C=C[C@@H]1C)C[C@@H]1C[C@@H](C/C=C(\C)[C@@H](OC3CC(OC)C(OC(=O)Cn4nc(C(F)(F)F)cc4OC)C(C)O3)[C@@H](C)/C=C/C=C3\CO[C@@H]4[C@H](O)C(C)=CC(C(=O)O1)[C@]34O)O2 (stereo partly drawn) [Example 41]	83%

From patent publication US8183351B2, “Avermectin derivatives” (Bayer Cropscience AG, priority 2006, dated 2012)
